Test: in vitro
Settings: human, hela cells, % viability

First: CN(C)C(=O)CN1CCCC2(CCN(C(=O)c3cc(F)c(F)cc3F)C2)C1 (centres unmarked) [CBK132024]
Second: Cc1nc(CN2CCCC3(CCN(C(=O)c4cc(F)c(F)cc4F)C3)C2)cs1 (centres unmarked) [CBK132026]
The viability at 28.5 h, 10 µM of the first is lower: 93.5% for the first, 119% for the second.

Compared with `COc1cc(CN2CCCC3(CCN(C(=O)Cc4c[nH]c5ccccc45)C3)C2)cc(OC)c1OC` (centres unmarked) [CBK132027], `N#Cc1cccc(CN2CCCC3(CCN(C(=O)Cc4c[nH]c5ccccc45)C3)C2)c1` (centres unmarked) [CBK132032] is higher in viability at 28.5 h, 10 µM: 99.5% for the first, 103% for the second.

First: O=C(Cc1c[nH]c2ccccc12)N1CCC2(CCCN(Cc3c(F)cccc3F)C2)C1 (centres unmarked) [CBK132031]
Second: O=C(Cc1c[nH]c2ccccc12)N1CCC2(CCCN(CCO)C2)C1 (centres unmarked) [CBK132045]
The viability at 28.5 h, 10 µM of the first is higher: 115% for the first, 95.9% for the second.

Going from `NC(=O)CCN1CCCC2(CCN(C(=O)Cc3c[nH]c4ccccc34)C2)C1` (centres unmarked) [CBK132041] to `NC(=O)CN1CCCC2(CCN(C(=O)Cc3c[nH]c4ccccc34)C2)C1` (centres unmarked) [CBK132046], the viability at 28.5 h, 10 µM falls from 106% to 87.4%.

Going from `O=C(CN1CCCC2(CCN(C(=O)Cc3c[nH]c4ccccc34)C2)C1)Nc1ncccn1` (centres unmarked) [CBK132048] to `O=C(CN1CCCC2(CCN(C(=O)Cc3c[nH]c4ccccc34)C2)C1)c1ccsc1` (centres unmarked) [CBK132053], the viability at 28.5 h, 10 µM rises from 86.7% to 96.3%.

First: O=C1NC(=O)C(CCCCN2CCCC3(CCN(C(=O)Cc4c[nH]c5ccccc45)C3)C2)N1 (centres unmarked) [CBK132059]
Second: O=C1NC(=O)C(CCCCN2CCC3(CCN(C(=O)c4cc(F)c(F)cc4F)C3)C2)N1 (centres unmarked) [CBK132147]
The viability at 28.5 h, 10 µM of the first is lower: 83.8% for the first, 84.8% for the second.

First: Cc1ccc2cc(CN(Cc3ccccc3)C(=O)NCc3c(Cl)cccc3Cl)c(=O)[nH]c2c1C [CBK132088]
Second: CCN(CC)Cc1ccc2[nH]c(=O)c(CNCc3ccc(OC)cc3)cc2c1 [CBK132113]
The viability at 28.5 h, 10 µM of the first is lower: 81.8% for the first, 106% for the second.

First: O=C(c1cc(F)c(F)cc1F)N1CCC2(CCN(Cc3nc4ccccc4[nH]3)C2)C1 (centres unmarked) [CBK132134]
Second: O=C(c1cc(F)c(F)cc1F)N1CCC2(CCN(CCN3CCOCC3)C2)C1 (centres unmarked) [CBK132145C]
The viability at 28.5 h, 10 µM of the first is lower: 89.9% for the first, 102% for the second.

First: COc1ccc(C(=O)N2CCC3(CCN(Cc4cccc(C#N)c4)C3)C2)cc1OC (centres unmarked) [CBK132153]
Second: COc1ccc(C(=O)N2CCC3(CCN(Cc4cc(=O)[nH]c(=O)[nH]4)C3)C2)cc1OC (centres unmarked) [CBK132162]
The viability at 28.5 h, 10 µM of the first is lower: 87.7% for the first, 108% for the second.

Going from `COc1cc(CC(=O)Nc2cccc(-c3ccc(SC(F)(F)F)cc3)c2)cc(OC)c1OC` [CBK132426] to `Cc1cc(C)nc(N/C(=N\C(=O)Nc2ccccc2)NCc2cccnc2)n1` [CBK132681], the viability at 28.5 h, 10 µM falls from 100% to 92.2%.

With `O=C(c1ccoc1)N1CCC2(CCCN(Cc3ccc(OC(F)(F)F)cc3)C2)C1` (centres unmarked) [CBK132801] the viability at 28.5 h, 10 µM was 114%.

Same assay, conditions: human, hela cells, % viability, bulk resorufin, single well

Compared with `CCOC(=O)C1(c2ccccc2)CCN(C(=O)c2ccc(OC(F)(F)F)cc2)CC1` [CBK132174], `CCOC(=O)C1(c2ccccc2)CCN(C(=O)COc2ccc(F)cc2)CC1` [CBK132176] is lower in viability at 28.5 h, 10 µM: 96.2% for the first, 93.8% for the second.

First: CCOC(=O)C1(c2ccccc2)CCN(C(=O)Cc2ccc(Cl)c(Cl)c2)CC1 [CBK132175]
Second: CCOC(=O)C1(c2ccccc2)CCN(C(=O)Cc2c[nH]cn2)CC1 [CBK132205]
The viability at 28.5 h, 10 µM of the first is higher: 113% for the first, 94.3% for the second.

Compared with `CCOC(=O)C1(c2ccccc2)CCN(C(=O)C2COc3ccccc3O2)CC1` (centres unmarked) [CBK132178], `CCOC(=O)C1(c2ccccc2)CCN(C(=O)c2ccco2)CC1` [CBK132199] is lower in viability at 28.5 h, 10 µM: 93.3% for the first, 86.2% for the second.

Compared with `CCOC(=O)C1(c2ccccc2)CCN(C(=O)Cc2nnn[nH]2)CC1` [CBK132182], `CCOC(=O)C1(c2ccccc2)CCN(C(=O)CC2NC(=O)NC2=O)CC1` (centres unmarked) [CBK132196] is lower in viability at 28.5 h, 10 µM: 94.6% for the first, 93.7% for the second.

Compared with `CCOC(=O)C1(c2ccccc2)CCN(C(=O)COc2ccccc2OC)CC1` [CBK132183], `CCOC(=O)C1(c2ccccc2)CCN(C(=O)c2ccc3ncccc3c2)CC1` [CBK132206] is higher in viability at 28.5 h, 10 µM: 87.1% for the first, 107% for the second.

Work on `CCOC(=O)C1(c2ccccc2)CCN(C(=O)c2ccc3occc3c2)CC1` [CBK132187] yielded a viability at 28.5 h, 10 µM of 92.2%.

Reference: publication PMC12040169 (PLOS Biology, 2025)
